Measurements published in US10072065B2, “Peptide-mediated delivery of immunoglobulins across the blood-brain barrier” (Mayo Foundation for Medical Education and Research, priority 2015, dated 2018).

System: blood-brain barrier (BBB)
Assay: Transportation of Evan's Blue (EB) across the BBB after IV Apo-I or peptide-cetuximab complex
Type: in vivo, mouse
Settings: ~40 μL 2% EB only, IV femoral vein, brain evaluated approximately 2 hours after dye (brain number 1)
Experimental: To explore whether Apo-I transports an antibody across the BBB, the peptide or a peptide-cetuximab complex were first injected by IV followed by injection of Evan's Blue (EB; a routinely used small molecule blue dye with a molecular weight of 960.81) by IV into the femoral vein of a mouse. Cardiac perfusion was performed and the brains of the mice were removed and evaluated approximately 2 hours following injection of the dye. As a control, injection of EB only was used. The particulars of each administration are as follows: • 1) ˜40 μL 2% EB only was injected. • 2) 300 μg of Apo-I was injected first, then ˜40 μL 2% EB was injected. • 3) 600 μg of Apo-I was injected first, then ˜40 μL 2% EB was injected. • 4) 600 μg of Apo-I was mixed with 200 μg cetuximab prior to injection and then injected first, then ˜40 μL 2% EB was injected.

Cc1cc(-c2ccc(/N=N/c3ccc4c(S(=O)(=O)[O-])cc(S(=O)(=O)[O-])c(N)c4c3O)c(C)c2)ccc1/N=N/c1ccc2c(S(=O)(=O)[O-])cc(S(=O)(=O)[O-])c(N)c2c1O.[Na+].[Na+].[Na+].[Na+] [EB, Evan's Blue]
EB reaching the brain (blue coloring of brain): cannot reach the brain
